Patent publication US5830917A, “L-N^6 -(1-iminoethyl) lysine derivatives useful as nitric oxide synthase inhibitors” (G. D. Searle & Co., priority 1995, dated 1998)
Counter-ions that a name gives are not always drawn.

What was measured:
[1] = molecular target: T1, human inducible NOS (hiNOS) (Homo sapiens, UniProt P35228); assay: Citrulline Assay for Nitric Oxide Synthase, hiNOS; format: biochemical; details: 37° C., 15 minutes, L-[2,3-3H]-arginine to citrulline
T1 construct: made in house; host or cells: insect cells, baculovirus vector
Procedure: (§1) Citrulline Assay for Nitric Oxide Synthase
(§2) Nitric oxide synthase activity was measured by monitoring the conversion of L-[2,3-3H]-arginine to L-[2,3-3H]-citrulline (1,2). The cDNA for human inducible NOS (hiNOS) was isolated from a λcDNA library made from RNA extracted from a colon sample from a patient with ulcerative colitis; human endothelial constitutive NOS (hecNOS) was isolated from a λcDNA library made from RNA extracted from human umbilical vein endothelial cells (HUVEC); and human neuronal constitutive NOS (hncNOS) was isolated from a λcDNA library made from RNA extracted from human cerebellum from a cadaver. The recombinant enzymes were expressed in insect cells using a baculovirus vector. Enzyme activity was isolated from cell extracts and partially purified by DEAE-Sepharose chromatography (2). Enzyme and inhibitors were added to give a volume of 50 μL in 50 mM Tris (pH 7.6) and the reaction initiated by the addition of 50 μL of a solution containing 50 mM Tris (pH 7.6), 2.0 mg/mL bovine serum albumin, 2.0 mM DTT, 4.0 mM CaCl2, 20 μM FAD, 100 μM tetrahydrobiopterin, 0.4-2.0 mM NADPH and 60 μM L-arginine containing 0.9 μCi of L-[2,3-3H]-arginine. […] The [3H]-citrulline was separated by chromatography on Dowex 50W X-8 cation exchange resin and radioactivity quantified with a liquid scintillation counter.

[2] = molecular target: T2, human endothelial constitutive NOS (hecNOS) (Homo sapiens, UniProt P29474); assay: Citrulline Assay for Nitric Oxide Synthase, hecNOS; format: biochemical; details: 37° C., 15 minutes, with calmodulin 40-100 nM
T2 construct: made in house; host or cells: insect cells, baculovirus vector
Procedure: as §1, §2

[3] = molecular target: T3, human neuronal constitutive NOS (hncNOS) (Homo sapiens, UniProt P29475); assay: Citrulline Assay for Nitric Oxide Synthase, hncNOS; format: biochemical; details: 37° C., 15 minutes, with calmodulin 40-100 nM
T3 construct: made in house; host or cells: insect cells, baculovirus vector
Procedure: as §1, §2

[4] = test system: constitutive and the inducible NO synthase; details: background statement; cited from earlier work

Row | IC50 [1] [µM] | IC50 [2] [µM] | IC50 [3] [µM] | Structure (SMILES) | selectivity between constitutive and inducible NO synthase [4]
1 | 22 | 479 | 35 | CC(=N)NCCCC[C@H](N)CNC(=N)N [Example 2, N-[5S-amino-6-[(aminoiminomethyl)amino]hexyl]ethanimidamide, trihydrochloride] | 
2 | 106 | 6620 | 837 | CC(=N)NCCCC[C@H](N)CNS(C)(=O)=O [Example 3, N-[5S-amino-6-[(methylsulfonyl)amino]hexyl]ethanimidamide, dihydrochloride] | 
3 |  |  |  | CN=C(N)NCCC[C@H](N)C(=O)O [L-NMMA, L-N-monomethyl-arginine] | non-selective
